Source: patent US20100279990A1, “ANTIPROLIFERATIVE COMPOUNDS, COMPOSITIONS AND METHODS OF USE” (RAMOT AT TEL-AVIV UNIVERSITY LTD., priority 2006, published 2010)

Key:
GXF 251L = experiment: Monolayer Assay, PI: GXF 251L (Gastric); type: cell-based, human
Source text: (§1) This example illustrates cell proliferation data in the form of IC50, IC70 and IC90 values obtained by exposure of human cancer cell-lines to compound (Ia). […].

RXF 393NL = experiment: Monolayer Assay, PI: RXF 393NL (Renal); type: cell-based, human
Source text: as §1

[1] = system: CEM/C1 human leukemia cells; experiment: Cell proliferation of CEM/C1 human leukemia cells, 3H thymidine incorporation; type: cell-based
Method: […] Cells, 10,000/well, were harvested and the incorporated radioactivity was determined by liquid scintillation in a beta counter.

CXF HT29 = experiment: Monolayer Assay, PI: CXF HT29 (Colorectal); type: cell-based, human
Source text: as §1

LXF H460 = experiment: Monolayer Assay, PI: LXF H460 (Lung); type: cell-based, human
Source text: as §1

MEXF 394NL = experiment: Monolayer Assay, PI: MEXF 394NL (Melanoma); type: cell-based, human
Source text: as §1

human glioma U87 cells = experiment: Viability of human glioma U87 cell-line; type: cell-based; conditions: FIG. 9
PRXF PC3M = experiment: Monolayer Assay, PI: PRXF PC3M (Prostate); type: cell-based, human
Source text: as §1

LXF 1121L = experiment: Monolayer Assay, PI: LXF 1121L (Lung); type: cell-based, human
Source text: as §1

PRXF DU145 = experiment: Monolayer Assay, PI: PRXF DU145 (Prostate); type: cell-based, human
Source text: as §1

OVXF 1619L = experiment: Monolayer Assay, PI: OVXF 1619L (Ovarian Cancer); type: cell-based, human
Source text: as §1

[2] = system: Con-A activated naive mouse splenocytes; experiment: Con-A-induced mouse splenocyte proliferation, alamar blue staining; type: cell-based; conditions: Splenocyte, 48 hr, alamar blue, read-out: IC50, inhibition in cell viability
Source text: This example illustrates cell viability data obtained by separately administering different concentrations of compound (Ia), paroxetine, citalopram, and ecitalopram to Con-A activated naive mouse splenocytes. FIG. 3A depicts the comparative effect of compound (Ia), paroxetine, citalopram and ecitalopram on Con-A-induced mouse splenocyte proliferation using alamar blue staining after 48 hr. Each point represents the mean+/−SE of 5 determinations.

Jurkat Lymphoma cells = experiment: Viability of Jurkat Lymphoma cells, combination with Doxorubicin; type: cell-based; conditions: Homo sapiens, read-out: inhibition of cell viability
[3] = system: human Jurkat lymphoma cells; experiment: Viability of human Jurkat lymphoma cells, dexamethasone alone and in combination; type: cell-based
LXF 629L = experiment: Monolayer Assay, PI: LXF 629L (Lung); type: cell-based, human
Source text: as §1

LXF 526L = experiment: Monolayer Assay, PI: LXF 526L (Lung); type: cell-based, human
Source text: as §1

Q: Which results are given for `CN[C@H]1CC[C@@H](c2ccc(Cl)c(Cl)c2)c2ccc(C#CCCCO)cc21` [compound (Ia), (1S-cis)-4-(3,4-dichlorophenyl)-7-(5-hydroxy-1-pentyn-1-yl)-1,2,3,4-tetrahydro-N-methyl-1-naphthalenamine hydroiodide]?
A: Test/Control (%) (GXF 251L; 2.3 μg/ml): 80%; Test/Control activity class (GXF 251L; 2.3 μg/ml): − (− (T/C = 50)); Test/Control (%) (GXF 251L; 7.5 μg/ml): 54%; Test/Control activity class (GXF 251L; 7.5 μg/ml): − (− (T/C = 50)); Test/Control (%) (GXF 251L; 23. μg/ml): 7%; Test/Control activity class (GXF 251L; 23. μg/ml): +++ (+++ (T/C < 10)); Test/Control (%) (GXF 251L; 75. μg/ml): 3%; Test/Control activity class (GXF 251L; 75. μg/ml): +++ (+++ (T/C < 10)); Test/Control (%) (GXF 251L; .75 μg/ml): 90%; Test/Control activity class (GXF 251L; .75 μg/ml): − (− (T/C = 50)); Test/Control (%) (RXF 393NL; 2.3 μg/ml): 91%; Test/Control activity class (RXF 393NL; 2.3 μg/ml): − (− (T/C = 50)); Test/Control (%) (RXF 393NL; 7.5 μg/ml): 5%; Test/Control activity class (RXF 393NL; 7.5 μg/ml): +++ (+++ (T/C < 10)); Test/Control (%) (RXF 393NL; 23. μg/ml): 1%; Test/Control activity class (RXF 393NL; 23. μg/ml): +++ (+++ (T/C < 10)); Test/Control (%) (RXF 393NL; 75. μg/ml): 1%; Test/Control activity class (RXF 393NL; 75. μg/ml): +++ (+++ (T/C < 10)); Test/Control (%) (RXF 393NL; .75 μg/ml): 96%; Test/Control activity class (RXF 393NL; .75 μg/ml): − (− (T/C = 50)); effect compared to sertraline and paroxetine [1]: significantly higher effects compared to sertraline and paroxetine; cell proliferation ([1]; 1 μM, 3H thymidine incorporation 24 hours): 38.8 % of controls; inhibition at 10 µM ([1]; Homo sapiens, 10 μM, 3H thymidine incorporation): ~95%; effect on cell proliferation ([1]; already evident at 1 μM): dose dependent decrease in cell proliferation; Test/Control (%) (CXF HT29; 2.3 μg/ml): 100%; Test/Control activity class (CXF HT29; 2.3 μg/ml): − (− (T/C = 50)); Test/Control (%) (CXF HT29; 7.5 μg/ml): 3%; Test/Control activity class (CXF HT29; 7.5 μg/ml): +++ (+++ (T/C < 10)); Test/Control (%) (CXF HT29; 23. μg/ml): 1%; Test/Control activity class (CXF HT29; 23. μg/ml): +++ (+++ (T/C < 10)); Test/Control (%) (CXF HT29; 75. μg/ml): 1%; Test/Control activity class (CXF HT29; 75. μg/ml): +++ (+++ (T/C < 10)); Test/Control (%) (CXF HT29; .75 μg/ml): 99%; Test/Control activity class (CXF HT29; .75 μg/ml): − (− (T/C = 50)); Test/Control (%) (LXF H460; 2.3 μg/ml): 95%; Test/Control activity class (LXF H460; 2.3 μg/ml): − (− (T/C = 50)); Test/Control (%) (LXF H460; 7.5 μg/ml): 2%; Test/Control activity class (LXF H460; 7.5 μg/ml): +++ (+++ (T/C < 10)); Test/Control (%) (LXF H460; 23. μg/ml): 1%; Test/Control activity class (LXF H460; 23. μg/ml): +++ (+++ (T/C < 10)); Test/Control (%) (LXF H460; 75. μg/ml): 1%; Test/Control activity class (LXF H460; 75. μg/ml): +++ (+++ (T/C < 10)); Test/Control (%) (LXF H460; .75 μg/ml): 101%; Test/Control activity class (LXF H460; .75 μg/ml): − (− (T/C = 50)); Test/Control (%) (MEXF 394NL; 2.3 μg/ml): 59%; Test/Control activity class (MEXF 394NL; 2.3 μg/ml): − (− (T/C = 50)); Test/Control (%) (MEXF 394NL; 7.5 μg/ml): 3%; Test/Control activity class (MEXF 394NL; 7.5 μg/ml): +++ (+++ (T/C < 10)); Test/Control (%) (MEXF 394NL; 23. μg/ml): 2%; Test/Control activity class (MEXF 394NL; 23. μg/ml): +++ (+++ (T/C < 10)); Test/Control (%) (MEXF 394NL; 75. μg/ml): 2%; Test/Control activity class (MEXF 394NL; 75. μg/ml): +++ (+++ (T/C < 10)); Test/Control (%) (MEXF 394NL; .75 μg/ml): 99%; Test/Control activity class (MEXF 394NL; .75 μg/ml): − (− (T/C = 50)); effect on cell viability (human glioma U87 cells): inhibit this glioma cell-line in a dose dependant fashion; efficacy compared with paroxetine (human glioma U87 cells): higher efficacy than paroxetine; Test/Control (%) (PRXF PC3M; 2.3 μg/ml): 91%; Test/Control activity class (PRXF PC3M; 2.3 μg/ml): − (− (T/C = 50)); Test/Control (%) (PRXF PC3M; 7.5 μg/ml): 4%; Test/Control activity class (PRXF PC3M; 7.5 μg/ml): +++ (+++ (T/C < 10)); Test/Control (%) (PRXF PC3M; 23. μg/ml): 1%; Test/Control activity class (PRXF PC3M; 23. μg/ml): +++ (+++ (T/C < 10)); Test/Control (%) (PRXF PC3M; 75. μg/ml): 1%; Test/Control activity class (PRXF PC3M; 75. μg/ml): +++ (+++ (T/C < 10)); Test/Control (%) (PRXF PC3M; .75 μg/ml): 95%; Test/Control activity class (PRXF PC3M; .75 μg/ml): − (− (T/C = 50)); Test/Control (%) (LXF 1121L; 2.3 μg/ml): 104%; Test/Control activity class (LXF 1121L; 2.3 μg/ml): − (− (T/C = 50)); Test/Control (%) (LXF 1121L; 7.5 μg/ml): 72%; Test/Control activity class (LXF 1121L; 7.5 μg/ml): − (− (T/C = 50)); Test/Control (%) (LXF 1121L; 23. μg/ml): 2%; Test/Control activity class (LXF 1121L; 23. μg/ml): +++ (+++ (T/C < 10)); Test/Control (%) (LXF 1121L; 75. μg/ml): 1%; Test/Control activity class (LXF 1121L; 75. μg/ml): +++ (+++ (T/C < 10)); Test/Control (%) (LXF 1121L; .75 μg/ml): 103%; Test/Control activity class (LXF 1121L; .75 μg/ml): − (− (T/C = 50)); Test/Control (%) (PRXF DU145; 2.3 μg/ml): 94%; Test/Control activity class (PRXF DU145; 2.3 μg/ml): − (− (T/C = 50)); Test/Control (%) (PRXF DU145; 7.5 μg/ml): 4%; Test/Control activity class (PRXF DU145; 7.5 μg/ml): +++ (+++ (T/C < 10)); Test/Control (%) (PRXF DU145; 23. μg/ml): 1%; Test/Control activity class (PRXF DU145; 23. μg/ml): +++ (+++ (T/C < 10)); Test/Control (%) (PRXF DU145; 75. μg/ml): 1%; Test/Control activity class (PRXF DU145; 75. μg/ml): +++ (+++ (T/C < 10)); Test/Control (%) (PRXF DU145; .75 μg/ml): 102%; Test/Control activity class (PRXF DU145; .75 μg/ml): − (− (T/C = 50)); Test/Control (%) (OVXF 1619L; 2.3 μg/ml): 88%; Test/Control activity class (OVXF 1619L; 2.3 μg/ml): − (− (T/C = 50)); Test/Control (%) (OVXF 1619L; 7.5 μg/ml): 2%; Test/Control activity class (OVXF 1619L; 7.5 μg/ml): +++ (+++ (T/C < 10)); Test/Control (%) (OVXF 1619L; 23. μg/ml): 1%; Test/Control activity class (OVXF 1619L; 23. μg/ml): +++ (+++ (T/C < 10)); Test/Control (%) (OVXF 1619L; 75. μg/ml): 1%; Test/Control activity class (OVXF 1619L; 75. μg/ml): +++ (+++ (T/C < 10)); Test/Control (%) (OVXF 1619L; .75 μg/ml): 98%; Test/Control activity class (OVXF 1619L; .75 μg/ml): − (− (T/C = 50)); IC50 [2]: 3.9 µM; cytotoxicity at 5 µM (Jurkat Lymphoma cells; 5 μM alone): 18%; cytotoxicity at 10 µM (Jurkat Lymphoma cells; 10 μM alone): 59.5%; inhibition of cell viability compared with sertraline and paroxetine ([3]; FIG. 13A): higher than that produced by either sertraline or paroxetine; cytotoxicity at 20 µM ([3]; Homo sapiens, 20 μM alone, FIG. 13B, read-out: inhibition of cell viability): 69%; Test/Control (%) (LXF 629L; 2.3 μg/ml): 94%; Test/Control activity class (LXF 629L; 2.3 μg/ml): − (− (T/C = 50)); Test/Control (%) (LXF 629L; 7.5 μg/ml): 4%; Test/Control activity class (LXF 629L; 7.5 μg/ml): +++ (+++ (T/C < 10)); Test/Control (%) (LXF 629L; 23. μg/ml): 1%; Test/Control activity class (LXF 629L; 23. μg/ml): +++ (+++ (T/C < 10)); Test/Control (%) (LXF 629L; 75. μg/ml): 2%; Test/Control activity class (LXF 629L; 75. μg/ml): +++ (+++ (T/C < 10)); Test/Control (%) (LXF 629L; .75 μg/ml): 99%; Test/Control activity class (LXF 629L; .75 μg/ml): − (− (T/C = 50)); Test/Control (%) (LXF 526L; 2.3 μg/ml): 81%; Test/Control activity class (LXF 526L; 2.3 μg/ml): − (− (T/C = 50)); Test/Control (%) (LXF 526L; 7.5 μg/ml): 6%; Test/Control activity class (LXF 526L; 7.5 μg/ml): +++ (+++ (T/C < 10)); Test/Control (%) (LXF 526L; 23. μg/ml): 5%; Test/Control activity class (LXF 526L; 23. μg/ml): +++ (+++ (T/C < 10)); Test/Control (%) (LXF 526L; 75. μg/ml): 4%; Test/Control activity class (LXF 526L; 75. μg/ml): +++ (+++ (T/C < 10)); Test/Control (%) (LXF 526L; .75 μg/ml): 92%; Test/Control activity class (LXF 526L; .75 μg/ml): − (− (T/C = 50))
